Assay results as given in PubChem BioAssay AID1996.
≈ marks a conversion by molar mass, not a printed value.

details: buffer; pH 7.4; 200.0 µM

| Compound | solubility kinetic |
| --- | --- |
| COc1ccc2c(c1O)C13CCN(C)C(C2)C1CCC(=O)C3 (centres undefined) | > 45.2 µg/mL |
| COC(=O)C1=C(N)Oc2cc(C)[nH]c(=O)c2C1c1ccccc1OC (centres undefined) | 46.5 µg/mL (≈ 136 µM) |
| Cn1cncc1C(=O)c1ccccc1 | > 27.9 µg/mL |
| Cc1ccc(NC(=O)COC(=O)c2ccc3c(c2)OCO3)c(C)c1 | < 0.7 µg/mL |
| CC(NC(=O)NC(=O)c1ccc(Cl)cc1)c1ccccc1 (centres undefined) | 0.4 µg/mL (≈ 1.32 µM) |
| COC(=O)c1ccc(NC(=S)NC2CC2)cc1 | > 37.5 µg/mL |
| O=C(COC(=O)c1ccccn1)Nc1cccc2ccccc12 | > 45.9 µg/mL |
| COc1cc(CN2CCCCCC2)c([N+](=O)[O-])cc1OC | 34.8 µg/mL (≈ 118 µM) |
| COc1ccc(NC(=S)N2c3ccccc3CC2C)cc1OC (centres undefined) | 42.4 µg/mL (≈ 129 µM) |
| CCNC(=O)NC(=O)CSc1ccc(S(=O)(=O)N2CCOCC2)cn1 | 56.2 µg/mL (≈ 145 µM) |
| COc1ccc(COc2cccnc2N)cc1 | 20.1 µg/mL (≈ 87.3 µM) |
| CCCn1c(SCC(=O)NC2CCCC2)nnc1C(C)C | > 46.6 µg/mL |
| O=C(Nc1ccc(F)c([N+](=O)[O-])c1)C1CCCO1 (centres undefined) | > 38.1 µg/mL |
| COc1ccc(Cc2nc3ccccc3[nH]c2=O)cc1 | 4.7 µg/mL (≈ 17.6 µM) |
| COc1ccc(/C=C/C(=O)NCCSCc2ccco2)cc1OC | 41.9 µg/mL (≈ 121 µM) |
| O=C(COC(=O)CNC(=O)c1ccccc1)NC(=O)NC1CCCCC1 | > 54.2 µg/mL |
| Cc1ccc(NC(=O)Cc2c[nH]c3ccccc23)cc1 | 3.2 µg/mL (≈ 12.1 µM) |
| COc1cccc(OCC(O)CNC(C)c2ccccc2)c1.Cl (centres undefined) | 49.1 µg/mL |
| CCNC(=O)N1CCN(C(=O)NCC)CC1 | 13.6 µg/mL (≈ 59.6 µM) |
| O=C(CNC(=O)c1ccc(Cl)cc1)c1ccccc1 | 6 µg/mL (≈ 21.9 µM) |
| O=C(O)/C=C/C(=O)Nc1ccc(OC(F)(F)F)cc1 | 38.8 µg/mL (≈ 141 µM) |
| O=C(Cc1c(F)cccc1Cl)OCC(=O)N1CCN(c2ccccc2)CC1 | 39.6 µg/mL (≈ 101 µM) |
| O=C(Nc1ccno1)Nc1ccc(Cl)cc1Cl | 5.4 µg/mL (≈ 19.8 µM) |
| COc1ccccc1C(O)c1nccn1C (centres undefined) | > 32.7 µg/mL |
| COc1ccc(C(=O)Nc2cccc3nc(C)ccc23)c(OC)c1 | 11.7 µg/mL (≈ 36.3 µM) |

| Compound | solubility kinetic |
| --- | --- |
| CCOc1ccc(C(=O)NCc2ccco2)cc1OCC | 22.5 µg/mL (≈ 77.8 µM) |
| CCCCc1nnc(SCC(=O)Nc2nccs2)n1C | > 46.7 µg/mL |
| O=C(CSc1cccs1)Nc1ccc(Cl)cc1 | 36.5 µg/mL (≈ 129 µM) |
| C=CCOc1c(Cl)cc(C(=S)N2CCCC2)cc1OCC | 5.7 µg/mL (≈ 17.5 µM) |
| CCn1c(SCCN2CCOCC2)nc2c1c(=O)n(C)c(=O)n2C | > 53 µg/mL |
| Cc1c(C(=O)NC2CCCc3ccccc32)cccc1[N+](=O)[O-] (centres undefined) | 6.1 µg/mL (≈ 19.7 µM) |
| CN(C)/C=C/C(=O)c1c(F)cccc1F | 31.4 µg/mL (≈ 149 µM) |
| CC(=O)Nc1ccc(SCC(=O)NCC2(N3CCCCC3)CCCCC2)cc1 | > 60.5 µg/mL |
| Nc1c2c(nc3cccc(Cl)c13)N(c1ccccc1)CC2 | 0.9 µg/mL (≈ 3.04 µM) |
| CC(=O)CC(=O)C1C(=O)N(C)C(=O)N(C)C1=O | > 36 µg/mL |
| CC(C)(CN)CC(=O)O.Cl | 23.2 µg/mL |
| CNC(=O)OCCSCCS(=O)(=O)c1ccc(Cl)cc1 | 16.6 µg/mL (≈ 49.1 µM) |
| CCCN1CCc2c(sc3nc(SC)n(-c4ccccc4)c(=O)c23)C1 | 33.9 µg/mL (≈ 91.2 µM) |
| O=C(C[n+]1cc[nH]c1)c1ccc(Cl)cc1.[Cl-] | > 38.6 µg/mL |
| O=C(Nc1ccc(Cl)cc1)N1CCOC12CCCCC2 | > 44.2 µg/mL |
| O=C1NC(c2cccc([N+](=O)[O-])c2)=CCN1c1ccccc1O | 45.2 µg/mL (≈ 145 µM) |
| O=C(Cn1ncc(Cl)c(Cl)c1=O)NC1CCCCC1 | > 45.6 µg/mL |
| O=C(/C=C/c1ccc(Cl)cc1)NCCCN1CCOCC1 | > 46.3 µg/mL |
| CCCCn1c(CCCNC(=O)c2ccco2)nc2ccccc21 | > 48.8 µg/mL |
| O=C(COC(=O)c1cccnc1Cl)NCCC1=CCCCC1 | > 48.4 µg/mL |
| Cc1c(Cl)cnc(NC(=O)COC(=O)CNC(=O)c2ccccc2)c1Cl | 52.3 µg/mL (≈ 132 µM) |
| O=C(Nc1ccc(N2CCCCC2)cc1)c1ccc2ccccc2n1 | < 0.2 µg/mL |
| CCC(=NCCc1ccc(OC)c(OC)c1)c1ccccc1O | > 47 µg/mL |
| CC(C)c1ccc(NC(=O)COc2ccccc2)cc1 | 10.1 µg/mL (≈ 37.5 µM) |
| Cc1ccccc1OCC(=O)NCCNC(=O)c1ccccn1 | > 47 µg/mL |

| Compound | solubility kinetic |
| --- | --- |
| Cc1cc2c(SCC(=O)NCC3CCCO3)ncnc2s1 (centres undefined) | > 48.5 µg/mL |
| CC(=O)C1=C(C)NC(=O)NC1c1ccc2c(c1)OCO2 (centres undefined) | > 41.1 µg/mL |
| Cc1ccccc1NC1=NC2(CCCC2)N=C(N)N1 | 28.3 µg/mL (≈ 110 µM) |
| O=C1C(=O)N(CC2COc3ccccc3O2)c2ccccc21 (centres undefined) | 40.6 µg/mL (≈ 137 µM) |
| Cc1cccc(C(=O)NCC(=O)N2CCCCCCC2)c1 | > 43.3 µg/mL |
| O=C(CN1C(=O)NC2(CCCCC2)C1=O)Nc1ccc(N2CCCCC2)cc1 | 10.9 µg/mL (≈ 28.3 µM) |
| Cc1ccc(OCC(=O)NCCCNC(=O)COc2ccc(C)cc2)cc1 | 15.1 µg/mL (≈ 40.8 µM) |
| Cc1c(Cl)cccc1NC(=O)CCN1C(=O)NC(C)(C)C1=O | > 48.6 µg/mL |
| Cc1cc(/C(N)=N/OC(=O)c2ccccc2Cl)no1 | > 42 µg/mL |
| COc1ccc(-c2cn3ccc(C)cc3n2)cc1 | 33.1 µg/mL (≈ 139 µM) |
| Fc1ccc(OCCn2cnc(Cl)c2Cl)cc1 | 29.7 µg/mL (≈ 108 µM) |
| CC(=O)Oc1ccccc1/C=C/c1nc2ccccc2c(=O)o1 | 27.2 µg/mL (≈ 88.5 µM) |
| Cc1ccc(NC(=S)NCCSc2ccc(Cl)cc2)cc1 | < 0.4 µg/mL |
| CC1(C(=O)OCC(=O)Nc2ccc(S(=O)(=O)N3CCOCC3)cc2)CC1(Cl)Cl (centres undefined) | 60.5 µg/mL (≈ 134 µM) |
| CC1CCCN(C(=O)COc2ccc(Nc3ccccc3)cc2)C1 (centres undefined) | 6.2 µg/mL (≈ 19.1 µM) |
| CCN(CC)S(=O)(=O)c1ccc2oc(Nc3ccccc3)nc2c1 | 6.4 µg/mL (≈ 18.5 µM) |
| CC(NS(=O)(=O)c1ccc(N)cc1)C1CC2CCC1C2 (centres undefined) | 6.8 µg/mL (≈ 23.1 µM) |
| COc1ccc2cc(C(=O)NCCc3ccccc3)[nH]c2c1 | < 0.3 µg/mL |
| Cn1nccc1C(=O)N1CCC(Cc2ccccc2)CC1 | > 42.5 µg/mL |
| O=C(COC(=O)COc1ccc(Cl)cc1)NCCCc1ccccc1 | 26.1 µg/mL (≈ 72.1 µM) |
| COCc1cc(C)nc(SCc2ccccc2)c1C#N | 3.4 µg/mL (≈ 12 µM) |
| O=C(Cc1cccs1)N1CCN=C1SCc1ccc(F)cc1 | 26 µg/mL (≈ 77.7 µM) |
| CSc1ccccc1NC(=S)NC1CCCCC1 | 30 µg/mL (≈ 107 µM) |
| O=C(O)c1cc(S(=O)(=O)NCCCN2CCCC2=O)ccc1Cl | > 54.1 µg/mL |
| COc1ccccc1NC(=O)/C(C#N)=C/c1cccn1C | 0.6 µg/mL (≈ 2.13 µM) |

| Compound | solubility kinetic |
| --- | --- |
| Cc1ccc2oc(C(=O)Nc3cc(C)on3)c(C)c2c1 | 1.2 µg/mL (≈ 4.44 µM) |
| Cc1[nH]c(=O)[nH]c(=O)c1N1CCOCC1 | > 31.7 µg/mL |
| CC(=O)Nc1ccc(C(=O)COC(=O)c2cccs2)c(F)c1 | 9.6 µg/mL (≈ 29.9 µM) |
| Cc1cc(F)c(F)c(C(=O)N2C(C)CCCC2C)c1Cl (centres undefined) | 14.5 µg/mL (≈ 48.1 µM) |
| COc1cc2c(cc1OC)C(C)N(C(=O)c1c(C)noc1C)CC2 (centres undefined) | 2.7 µg/mL (≈ 8.17 µM) |
| O=S(=O)(c1cccs1)N1CCC2(CC1)OCCO2 | > 43.4 µg/mL |
| C=CCN1C(=O)c2ccc(C(=O)Nc3ccccn3)cc2C1=O | 8 µg/mL (≈ 26 µM) |
| Cc1cc(C(=O)NC2CCCCC2C)c2ccccc2n1 (centres undefined) | > 42.4 µg/mL |
| Cc1cc(NC(=O)CSc2ncnc3sccc23)no1 | 19.3 µg/mL (≈ 63 µM) |
| COC(=O)CCNC(=O)c1ccc2[nH]c(C)c(C)c2c1 | > 41.1 µg/mL |
| CC(C)CCN1CCC(N)=NC1=O | 26.8 µg/mL (≈ 146 µM) |
| CNC1(C)[C@H]2CC[C@H](C2)C1(C)C.Cl (some centres undefined) | > 30.6 µg/mL |
| Cc1cc(C)c(S(=O)(=O)c2cc(F)ccc2C)c(Cl)n1 | 44.6 µg/mL (≈ 142 µM) |
| Cn1c(N)c(C(=O)COC(=O)C2CCCN2C(=O)c2cccs2)c(=O)n(C)c1=O (centres undefined) | 56.8 µg/mL (≈ 135 µM) |
| Oc1ccc(Nc2nc(-c3ccccc3)nc3ccccc23)cc1 | 2.3 µg/mL (≈ 7.34 µM) |
| O=[N+]([O-])c1ccc(COc2cccc3cccnc23)cc1 | 2.4 µg/mL (≈ 8.56 µM) |
| COCCOc1cc(COC)nc(-c2cccc(C)c2)n1 | 25.3 µg/mL (≈ 87.7 µM) |
| COc1ccc(C(C)=O)cc1CSc1nnc(-c2ccncc2)n1C | > 53.2 µg/mL |
| CC(C)C(=O)Nc1ccccc1Cc1ccccc1 | 10.7 µg/mL (≈ 42.2 µM) |
| CN(C(=O)COC(=O)c1ccc2ccccc2n1)c1ccccc1 | > 48.1 µg/mL |
| Cc1ccccc1NC(=O)c1sc(NC(=O)C2CC2)nc1C | 4.8 µg/mL (≈ 15.2 µM) |
| N#Cc1ccc(-c2cccnc2)nc1SCC(=O)c1ccccc1 | 2.8 µg/mL (≈ 8.45 µM) |
| Cc1ccc2[nH]c3c(c2c1)CNCC3.Cl | 31.7 µg/mL |
| CC(C)(C)Nc1nc(Cl)nc(NCc2ccccc2)n1 | 8 µg/mL (≈ 27.4 µM) |
| CC1(C)CC(NC(=O)C(=O)NCCc2ccccc2)CC(C)(C)N1 | > 49.7 µg/mL |

| Compound | solubility kinetic |
| --- | --- |
| Cc1ccccc1NC(=O)c1ccccn1 | 28.9 µg/mL (≈ 136 µM) |
| O=C1Cc2ccccc2C(c2ccc(Cl)cc2)N1 (centres undefined) | 30.4 µg/mL (≈ 118 µM) |
| COc1cccc(SCC(=O)N2CCN(c3ccccc3)CC2)c1 | 34.2 µg/mL (≈ 99.9 µM) |
| Cc1nc2ccc(C(=O)O)cc2c2c1CC(CN)O2 (centres undefined) | 19.7 µg/mL (≈ 76.3 µM) |
| Cc1ccc(S(=O)(=O)NCc2cn3ccccc3n2)c(C)c1 | 8.9 µg/mL (≈ 28.2 µM) |
| C=CCNC(=S)/N=c1/ccccn1Cc1ccccc1 | 39.6 µg/mL (≈ 140 µM) |
| CCOC(=O)C1CCN(S(=O)(=O)c2c(Cl)ccc3nonc23)CC1 | > 56.1 µg/mL |
| Cc1nc2ccccc2n1CCOc1ccccc1 | > 37.8 µg/mL |
| O=C(O)CN1C(=O)C(=O)N(Cc2cccc(F)c2)C1=O | > 42 µg/mL |
| CC1(C)Cc2nc3sc(C(N)=O)c(N)c3cc2CO1 | > 41.6 µg/mL |
| Cc1csc(NC(=O)c2cccc([N+](=O)[O-])c2C(=O)O)n1 | > 46.1 µg/mL |
| Cl.N[C@@H]1C[C@H]1c1ccccc1 | > 25.4 µg/mL |
| CCOCCCNC(=O)c1oc2ccc3c(c2c1C)C(O)CC(C)(C)O3 (centres undefined) | > 54.2 µg/mL |
| COc1cccc(C(=O)C(C#N)=C(SC)SC)c1 | 33.6 µg/mL (≈ 120 µM) |
| O=C(C1=C(O)C(=O)N(CCOCCO)C1c1ccccn1)c1cccs1 (centres undefined) | > 56.2 µg/mL |
| Cc1cccn2cc(-c3ccc(Cl)cc3)nc12 | 2.7 µg/mL (≈ 11.1 µM) |
| Cc1ccc(Nc2ccncc2S(N)(=O)=O)cc1 | 33 µg/mL (≈ 125 µM) |
| C/C(=N\NC(=O)c1ccncc1)c1cccs1 | > 36.8 µg/mL |
| COc1ccc(NC2(C#N)CCCCC2)cc1 | 12.4 µg/mL (≈ 53.8 µM) |
| O=C(Nc1ccccn1)c1ccc(C(=O)c2ccccc2)cc1 | 21.6 µg/mL (≈ 71.4 µM) |
| O=C(O)c1ccccc1C(=O)NC1CCCCNC1=O (centres undefined) | > 41.4 µg/mL |
| O=C(Nc1ccccc1Cl)C1Cc2ccccc2O/C1=N\O (centres undefined) | > 47.5 µg/mL |
| FC(F)(F)c1cccc(Cc2noc(CN3C[C@@H]4CCC[C@H]3C4)n2)c1 | 28.4 µg/mL (≈ 80.8 µM) |
| COc1ccc(C2CC(=O)C=C(NCc3ccc4c(c3)OCO4)C2)cc1 (centres undefined) | 8.5 µg/mL (≈ 24.2 µM) |
